Here are results for 62 molecules from patent US9718790B2, “Triazine derivative and pharmaceutical composition having an analgesic activity comprising the same” (SHIONOGI & CO., LTD., priority 2010, dated 2017).

In the test the target is human P2X3 receptor (Homo sapiens (Human), UniProt P56373). Briefly: Evaluation of human P2X3 receptor inhibitory activity (Fluo-3 calcium fluorescence, FDSS 3000, ATP stimulation).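 Note: stimulus was 50 nM ATP with fluorescence followed for 3 min, and the response per well was peak post-ATP fluorescence divided by the reading at measurement start.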 The settings on record: human P2X3 receptor, Test Example 1. Type of test: cell-based.
human P2X3 receptor, sequence (P56373 whole entry): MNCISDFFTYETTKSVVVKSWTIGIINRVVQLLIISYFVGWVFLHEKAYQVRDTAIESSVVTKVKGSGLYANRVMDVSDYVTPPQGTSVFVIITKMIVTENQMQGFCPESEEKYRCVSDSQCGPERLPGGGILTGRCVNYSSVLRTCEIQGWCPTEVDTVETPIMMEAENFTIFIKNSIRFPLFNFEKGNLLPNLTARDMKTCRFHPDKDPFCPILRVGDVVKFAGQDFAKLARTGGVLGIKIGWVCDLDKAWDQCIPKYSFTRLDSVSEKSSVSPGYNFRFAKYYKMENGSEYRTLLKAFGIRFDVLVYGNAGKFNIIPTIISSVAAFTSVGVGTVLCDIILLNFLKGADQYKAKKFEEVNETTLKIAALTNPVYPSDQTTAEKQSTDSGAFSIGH

The structures appear in SMILES notation.

The IC50 is the concentration at which inhibition is half-maximal. For `CCn1c(=O)[nH]/c(=N\c2ccc(Oc3ccon3)cc2)n(Cc2ccc(Cl)cc2)c1=O` [Compound I-2357], the half-inhibitory concentration (IC50) was 12 nM. In the case of `O=c1[nH]/c(=N\c2ccc(Oc3ccon3)cc2)n(Cc2ccc(Cl)cc2)c(=O)n1CCCO` [Compound I-2358], the 50% inhibitory concentration (IC50) turned out to be 6 nM. On to `CCn1c(=O)[nH]/c(=N\c2ccc(Oc3ccnc(C(=O)OC)c3)cc2)n(Cc2ccc(F)cc2)c1=O` [Compound I-2359], for which the half-inhibitory concentration (IC50) turned out to be 26 nM. With `CCn1c(=O)[nH]/c(=N\c2ccc(Oc3ccnc(C(=O)O)c3)cc2)n(Cc2ccc(F)cc2)c1=O` [Compound I-2360], the IC50 came out at 11 nM. Under `CCn1c(=O)[nH]/c(=N\c2ccc(Oc3ccnc(C(N)=O)c3)cc2)n(Cc2ccc(F)cc2)c1=O` [Compound I-2361] stands 15 nM; under `CCn1c(=O)[nH]/c(=N\c2ccc(Oc3ncccn3)cc2)n(Cc2ccc(Cl)cc2)c1=O` [Compound I-2362], 10 nM; under `Cc1ccc(Cn2c(=O)n(C)c(=O)[nH]/c2=N\c2ccc(Oc3cccc(/C=C/C(=O)O)c3)cc2)cc1` [Compound I-2363], 9 nM.

Regarding `Cn1c(=O)[nH]/c(=N\c2ccc(Oc3cccc(/C=C/C(=O)O)c3)cc2)n(Cc2ccc(Cl)cc2)c1=O` [Compound I-2364], the 50% inhibitory concentration (IC50) worked out at 8 nM. For `CCn1c(=O)[nH]/c(=N\c2ccc(Oc3ncccc3C(N)=O)cc2)n(Cc2ccc(Cl)cc2)c1=O` [Compound I-2365], the concentration for half-maximal inhibition (IC50) came to 211 nM.

For `CCn1c(=O)[nH]/c(=N\c2ccc(Oc3ncccc3C(=O)O)cc2)n(Cc2ccc(Cl)cc2)c1=O` [Compound I-2366], the IC50 was determined as 90 nM. As for `CCn1c(=O)[nH]/c(=N\c2ccc(Oc3cc(C)nn3C)cc2)n(Cc2ccc(Cl)cc2)c1=O` [Compound I-2367], the half-inhibitory concentration (IC50) is 128 nM.

Consider `Cc1cc(Oc2ccc(/N=c3\[nH]c(=O)n(C[C@H]4COC(C)(C)O4)c(=O)n3Cc3ccc(Cl)cc3)cc2)n(C)n1` [Compound I-2368], for which the IC50 turned out to be 13 nM. As for `O=c1[nH]/c(=N\c2ccc(Oc3ccon3)cc2)n(Cc2ccc(Cl)cc2)c(=O)n1CC(O)CO` (centres unmarked) [Compound I-2370], the concentration for half-maximal inhibition (IC50) is 11 nM. `Cc1cc(Oc2ccc(/N=c3\[nH]c(=O)n(C[C@H](O)CO)c(=O)n3Cc3ccc(Cl)cc3)cc2)n(C)n1` [Compound I-2371]: the IC50 is 102 nM.

Turning to `CCn1c(=O)[nH]/c(=N\c2ccc(Oc3ccnc(C#N)c3)cc2)n(Cc2ccc(Cl)cn2)c1=O` [Compound I-2372], the IC50 stood at 32 nM. As to `CCn1c(=O)[nH]/c(=N\c2ccc(Oc3cccc(C#N)n3)cc2)n(Cc2ccc(Cl)cn2)c1=O` [Compound I-2373], the half-inhibitory concentration (IC50) amounted to 33 nM. `Cn1c(=O)[nH]/c(=N\c2ccc(Oc3cccc(C#N)n3)cc2)n(Cc2ccc(Cl)cc2)c1=O` [Compound I-2374]: the 50% inhibitory concentration (IC50) is 8 nM. To `CCn1c(=O)[nH]/c(=N\c2ccc(Oc3ccc(C#N)nc3)cc2)n(Cc2ccc(Cl)cn2)c1=O` [Compound I-2375] belongs 22 nM; to `Cn1c(=O)[nH]/c(=N\c2ccc(Oc3cc(C(N)=O)ccn3)cc2)n(Cc2ccc(Cl)cc2)c1=O` [Compound I-2376], 20 nM. To `COC(=O)c1cc(Oc2ccc(/N=c3\[nH]c(=O)n(C)c(=O)n3Cc3ccc(Cl)cc3)cc2)ccn1` [Compound I-2377] belongs 15 nM; to `Cn1c(=O)[nH]/c(=N\c2ccc(Oc3ccnc(C(N)=O)c3)cc2)n(Cc2ccc(Cl)cc2)c1=O` [Compound I-2378], 6 nM; to `Cn1c(=O)[nH]/c(=N\c2ccc(Oc3ccc(C(N)=O)nn3)cc2)n(Cc2ccc(Cl)cc2)c1=O` [Compound I-2379], 9 nM. Take `Cn1c(=O)[nH]/c(=N\c2ccc(Oc3nccc(C(N)=O)n3)cc2)n(Cc2ccc(Cl)cc2)c1=O` [Compound I-2380]: the IC50 came to 29 nM. For the molecule `Cn1c(=O)[nH]/c(=N\c2ccc(Oc3ccc(C(=O)O)nn3)cc2)n(Cc2ccc(Cl)cc2)c1=O` [Compound I-2381], the IC50 worked out at 54 nM. As for `Cc1ccc(Cn2c(=O)n(C)c(=O)[nH]/c2=N\c2ccc(Oc3ccc(C(=O)O)nn3)cc2)cc1` [Compound I-2382], the concentration for half-maximal inhibition (IC50) was determined as 54 nM. Consider `CCn1c(=O)[nH]/c(=N\c2ccc(Oc3ccc(C(=O)O)nn3)cc2)n(Cc2ccc(C)cc2)c1=O` [Compound I-2383], for which the 50% inhibitory concentration (IC50) stood at 15 nM. Take `Cc1ccc(Cn2c(=O)n(C)c(=O)[nH]/c2=N\c2ccc(Oc3cnc(C(=O)O)cn3)cc2)cc1` [Compound I-2385]: the IC50 is 13 nM. `Cn1c(=O)[nH]/c(=N\c2ccc(Oc3cnc(C(=O)O)cn3)cc2)n(Cc2ccc(Cl)cc2)c1=O` [Compound I-2386]: the concentration for half-maximal inhibition (IC50) is 13 nM. Take `CCn1c(=O)[nH]/c(=N\c2ccc(Oc3cccc(C#N)n3)c(OC)c2)n(Cc2ccc(Cl)cc2)c1=O` [Compound I-2387]: the concentration for half-maximal inhibition (IC50) is 2 nM.

`CCn1c(=O)[nH]/c(=N\c2ccc(Oc3cnc(C(N)=O)cn3)cc2)n(Cc2ccc(Cl)cc2)c1=O` [Compound I-2388]: the IC50 was 3 nM. Regarding `Cn1c(=O)[nH]/c(=N\c2ccc(Oc3cnc(C(N)=O)cn3)cc2)n(Cc2ccc(Cl)cc2)c1=O` [Compound I-2389], the half-inhibitory concentration (IC50) stood at 10 nM. As for `COc1cc(/N=c2\[nH]c(=O)n(C)c(=O)n2Cc2ccc(Cl)cc2)ccc1Oc1cccc(C#N)n1` [Compound I-2390], the half-maximal inhibitory concentration (IC50) was found to be 7 nM. As to `Cn1c(=O)[nH]/c(=N\c2ccc(Oc3cc(C(=O)O)ccn3)cc2)n(Cc2ccc(Cl)cc2)c1=O` [Compound I-2391], the 50% inhibitory concentration (IC50) came out at 29 nM. Under `Cn1c(=O)[nH]/c(=N\c2ccc(Oc3ccc(C#N)cn3)cc2)n(Cc2ccc(Cl)cc2)c1=O` [Compound I-2392] stands 11 nM; under `Cc1ccc(Cn2c(=O)n(C)c(=O)[nH]/c2=N\c2ccc(Oc3ccc(C#N)cn3)cc2)cc1` [Compound I-2393], 10 nM; under `O=c1[nH]/c(=N\c2ccc(Oc3ccon3)cc2)n(Cc2ccc(F)cc2)c(=O)n1CCCOC1CCCCO1` (centres unmarked) [Compound I-2394], 21 nM. On to `CCn1c(=O)[nH]/c(=N\c2ccc(Oc3ccc(C#N)cn3)cc2)n(Cc2ccc(C)cc2)c1=O` [Compound I-2395], for which the half-maximal inhibitory concentration (IC50) is 4 nM. For `CC1(Cn2c(=O)[nH]/c(=N\c3ccc(Oc4ccon4)cc3)n(Cc3ccc(F)cc3)c2=O)COC(C)(C)OC1` [Compound I-2396], the IC50 was 6 nM. To `O=c1[nH]/c(=N\c2ccc(Oc3ccon3)cc2)n(Cc2ccc(F)cc2)c(=O)n1CCCO` [Compound I-2397] belongs 39 nM; to `CCn1c(=O)[nH]/c(=N\c2ccc(Oc3ccc(C(N)=O)cn3)cc2)n(Cc2ccc(C)cc2)c1=O` [Compound I-2398], 3 nM; to `CC(CO)(CO)Cn1c(=O)[nH]/c(=N\c2ccc(Oc3ccon3)cc2)n(Cc2ccc(F)cc2)c1=O` [Compound I-2399], 20 nM. On to `CCn1c(=O)[nH]/c(=N\c2ccc(Oc3ccc(C(=O)O)cn3)cc2)n(Cc2ccc(C)cc2)c1=O` [Compound I-2400], for which the IC50 worked out at 6 nM.

Take `Cc1ccc(Cn2c(=O)n(C)c(=O)[nH]/c2=N\c2ccc(Oc3ccc(C(=O)O)cn3)cc2)cc1` [Compound I-2401]: the 50% inhibitory concentration (IC50) was found to be 18 nM.

In the case of `COC(=O)c1ccc(Oc2ccc(/N=c3\[nH]c(=O)n(C)c(=O)n3Cc3ccc(Cl)cc3)cc2)cn1` [Compound I-2402], the IC50 came to 3 nM. Under `Cc1ccc(Cn2c(=O)n(C)c(=O)[nH]/c2=N\c2ccc(Oc3nccc(C(=O)O)n3)cc2)cc1` [Compound I-2403] stands 61 nM. Under `CCn1c(=O)[nH]/c(=N\c2ccc(Oc3nccc(C(=O)O)n3)cc2)n(Cc2ccc(C)cc2)c1=O` [Compound I-2404] stands 16 nM; under `Cn1c(=O)[nH]/c(=N\c2ccc(Oc3nccc(C(=O)O)n3)cc2)n(Cc2ccc(Cl)cc2)c1=O` [Compound I-2405], 62 nM; under `Cn1c(=O)[nH]/c(=N\c2ccc(Oc3ccc(C(N)=O)nc3)cc2)n(Cc2ccc(Cl)cc2)c1=O` [Compound I-2406], 10 nM.

Regarding `Cn1c(=O)[nH]/c(=N\c2ccc(Oc3ccc(C(N)=O)cn3)cc2)n(Cc2ccc(Cl)cc2)c1=O` [Compound I-2407], the half-inhibitory concentration (IC50) came to 9 nM. Regarding `O=c1[nH]/c(=N\c2ccc(Oc3ccon3)cc2)n(Cc2ccc(Cl)cc2)c(=O)n1C[C@@H](O)CO` [Compound I-2408], the half-maximal inhibitory concentration (IC50) stood at 14 nM. To `Cn1c(=O)[nH]/c(=N\c2ccc(Oc3ncc(C(=O)O)s3)cc2)n(Cc2ccc(Cl)cc2)c1=O` [Compound I-2409] belongs 14 nM.

With `Cn1c(=O)[nH]/c(=N\c2ccc(Oc3nc(C(=O)O)cs3)cc2)n(Cc2ccc(Cl)cc2)c1=O` [Compound I-2410], the half-inhibitory concentration (IC50) came to 36 nM. To `Cn1c(=O)[nH]/c(=N\c2ccc(Oc3cc(C(=O)O)n[nH]3)cc2)n(Cc2ccc(Cl)cc2)c1=O` [Compound I-2411] belongs 166 nM; to `Cn1ccc(Oc2ccc(/N=c3\[nH]c(=O)n(C[C@H](O)CO)c(=O)n3Cc3ccc(Cl)cc3)cc2)n1` [Compound I-2412], 84 nM.

As to `Cn1ccc(Oc2ccc(/N=c3\[nH]c(=O)n(CCCO)c(=O)n3Cc3ccc(Cl)cc3)cc2)n1` [Compound I-2413], the IC50 is 36 nM. To `Cn1c(=O)[nH]/c(=N\c2ccc(Oc3ncc(C(N)=O)s3)cc2)n(Cc2ccc(Cl)cc2)c1=O` [Compound I-2414] belongs 3 nM; to `Cn1c(=O)[nH]/c(=N\c2ccc(Oc3nc(C(N)=O)cs3)cc2)n(Cc2ccc(Cl)cc2)c1=O` [Compound I-2415], 9 nM.

Regarding `Cn1c(=O)[nH]/c(=N\c2ccc(Oc3cc(C(N)=O)n[nH]3)cc2)n(Cc2ccc(Cl)cc2)c1=O` [Compound I-2416], the IC50 came to 54 nM. On to `CCn1c(=O)[nH]/c(=N\c2ccc(Oc3cc(C(N)=O)n[nH]3)cc2)n(Cc2ccc(Cl)cc2)c1=O` [Compound I-2417], for which the IC50 was 41 nM. As for `O=c1[nH]/c(=N\c2ccc(Oc3ncccn3)cc2)n(Cc2ccc(Cl)cc2)c(=O)n1C[C@H](O)CO` [Compound I-2418], the IC50 worked out at 12 nM. In the case of `O=c1[nH]/c(=N\c2ccc(Oc3cncc(F)c3)cc2)n(Cc2ccc(Cl)cc2)c(=O)n1CCO` [Compound I-2420], the concentration for half-maximal inhibition (IC50) was 9 nM. In the case of `CCn1c(=O)[nH]/c(=N\c2ccc(Oc3cccc(C(=O)O)n3)c(OC)c2)n(Cc2ccc(Cl)cc2)c1=O` [Compound I-2423], the IC50 came to 7 nM.
